Measurements as given in patent US4920106A, “Acetylenic cyclic carbonates” (Merck & Co., Inc., priority 1989, dated 1990).
In brackets after ≈: the same amount, converted by molar mass.

Key:
[1] = system: Candida albicans MY 1055; test: Antifungal Assay (minimum inhibitory concentration, Candida albicans MY 1055); assay type: cell-based; conditions: Yeast Nitrogen Base/0.5% glucose; inoculum 3-5×10^-4 CFU/ml; 37° C., 18 hours; lowest concentration that inhibits visible growth
Experimental: Antifungal activity was determined against Candida albicans MY 1055, a yeast strain maintained by Merck and Co., Rahway, New Jersey. Minimum inhibitory concentrations were determined using a starting inoculum of 3-5×10^-4 CFU/ml. The medium was Yeast Nitrogen Base/0.5% glucose. Test compounds were dissolved in a minimum amount of 50% aqueous ethanol and diluted to final concentrations with yeast medium. Samples were incubated at 37° C. for 18 hours. The minimum inhibitory concentration (MIC), reported in μg/ml, is the lowest concentration of test compound that inhibits visible growth.

[2] = target: T1, Acetoacetyl-coenzyme A thiolase (Rattus norvegicus, UniProt Q5XI22); test: Acetoacetyl-Coenzyme A Thiolase Inhibition; assay type: biochemical, Sprague Dawley rats; conditions: Table II; text: IC50, concentration that inhibits 50% of thiolase activity; enzyme from livers of lovastatin-treated rats; pH 7.5, room temperature, 340 nm NADH oxidation; read-out: MIC
T1 construct: prepared from the livers of Sprague Dawley rats treated in the diet for one week with 0.075% lovastatin to induce the enzyme; from tissue; host or cells: liver of lovastatin-fed Sprague Dawley rats
Experimental: Acetoacetyl-coenzyme A thiolase was prepared from the livers of Sprague Dawley rats treated in the diet for one week with 0.075% lovastatin to induce the enzyme. Acetoacetyl-coenzyme A thiolase was purified through the DEAE-cellulose step essentially as described by Mehrabian et al., J. Biol. Chem., 261, 16249-16255 (1986), but modified slightly by carrying out the 30-50% ammonium sulfate precipitation of the enzyme and a dialysis before the DEAE-cellulose step. The 0.06M eluate described by Mehrabian et al. contained the acetoacetyl-coenzyme A thiolase. The isolate was concentrated by ammonium sulfate precipitation, dissolved in the buffer used for elution, and stored at -70° C.
Inhibition of acetoacetyl-coenzyme A thiolase was measured by coupling the formation of acetoacetyl-coenzyme A to its subsequent reduction by β-hydroxybutyryl-coenzyme A dehydrogenase to β-hydroxybutyryl-coenzyme A and monitoring the resultant oxidation of NADH with a spectrophotometer set at 340 nm. […] Reaction was measured at room temperature for a time period necessary to produce a measurable reaction rate. […]

[3] = system: cytosolic β-ketothiolase; conditions: background statement; cited from earlier work
[4] = system: certain fungal strains; conditions: background statement; cited from earlier work
[5] = system: certain bacterial strains; conditions: background statement; cited from earlier work
[6] = background statement; cited from earlier work

T1 sequence (Q5XI22 whole entry): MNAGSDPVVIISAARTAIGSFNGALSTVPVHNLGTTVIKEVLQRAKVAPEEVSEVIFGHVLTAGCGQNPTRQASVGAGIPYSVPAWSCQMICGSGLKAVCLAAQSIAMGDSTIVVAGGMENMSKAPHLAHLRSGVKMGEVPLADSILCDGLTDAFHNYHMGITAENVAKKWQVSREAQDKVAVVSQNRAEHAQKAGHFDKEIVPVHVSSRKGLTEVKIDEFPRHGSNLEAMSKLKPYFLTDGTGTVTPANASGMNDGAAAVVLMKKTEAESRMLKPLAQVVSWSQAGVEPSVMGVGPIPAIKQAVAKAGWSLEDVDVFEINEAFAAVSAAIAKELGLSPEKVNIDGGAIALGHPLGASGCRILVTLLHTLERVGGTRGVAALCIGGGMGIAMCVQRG

Structure (SMILES)	MIC [1] [mg/L]	IC50 [2] [µM]	inhibitor of cytosolic β-ketothiolase [3]	active against certain fungal strains [4]	active against certain bacterial strains [5]	instability of the compound in vivo [6]
COC(=O)CCCCCC[C@@H]1OC(=O)O[C@H]1C(O)C#CC#CC#C[Si](C)(C)C (single isomer, unassigned) [Ex. 6]	0.6 (≈ 1.48 µM)					
CC#CC#CC#C[C@@H](OC)[C@@H]1OC(=O)O[C@H]1CCCCCCC(=O)OC [Ex. 13, 5-(1(R)-Methoxy-2,4,6-octatriynyl)-2-oxo-4(S),5(S)-1,3-dioxolane-4-heptanoic acid, methyl ester]	5 (≈ 13.9 µM)	0.56				
C#CC#CC#CC(O)C1OC(=O)OC1CCCCCCC(=O)O (stereo not shown) [triyne carbonate A, 5-(1-hydroxy-2,4,6-heptatriynyl)-2-oxo-1,3-dioxolane-4-heptanoic acid]			potent inhibitor	active	active	relative instability
